Reference: article PMC9458111, “New 1,2,3-Triazole-Coumarin-Glycoside Hybrids and Their 1,2,4-Triazolyl Thioglycoside Analogs Targeting Mitochondria Apoptotic Pathway: Synthesis, Anticancer Activity and Docking Simulation” (Molecules, 2022)

What was measured:
[1] = test system: Bax protein in MCF-7 cells; test: Bax protein level in MCF-7 cells (ELISA); assay type: cell-based, human; conditions: MCF-7, 19.6 µM (IC50), 24 h
Protocol: (§1) Referring to the cytotoxicity results, the 1,2,4-triazole-thioglycoside derivative 10 has a mitochondria-apoptotic effect on breast cancer cells through reduction of MTT by a mitochondrial enzyme. […] Along with that, such derivative elevated the release of cytochrome c into the cytosol in the treated MCF-7, in comparison with untreated one from 0.176 to 0.766 ng/ml due to disturbing mitochondrial outer membrane permeability (MOMP). In addition, the target 10 achieved better results than those afforded by from the standard 5-fluorouracil. Moreover, the level of caspase-7 was elevated in treated cells with the target 10 rather than that with 5-fluorouracil or the untreated cells as shown in Figure 4.
Bax protein levels picogram per ml (Pg/mL) were evaluated according to previously reported procedure. Monoclonal antibody, specific to Bax captured on the plate, was added. After incubation, Streptavidin conjugated to Horseradish peroxidase was added. The reaction was then terminated by adding acid and optical density of the color produced measured at 450 nm.
Figure 4 Levels of Bax, Bcl-2, Bax/Bcl-2 ratio, cytochrome c and caspase-7 protein in MCF-7 cells after treatment with compound 10 and the standard drug for 24 h compared with the untreated one, 5-flu: 5-fluorouracil as a reference drug.

[2] = test system: human colon cell line (HCT-116 cell lines); test: MTT cytotoxicity assay, HCT-116; assay type: cell-based; conditions: HCT-116, 48 h
Protocol: The synthesized compounds were studied for their cytotoxic activity against several human cancer cell lines, namely human osteosarcoma (HOS cell lines), human breast adenocarcinoma (MDA-MB-231 cell lines), human breast cancer (MCF-7 cell lines), human colorectal adenocarcinoma (Caco-2 cell lines) and human colon cell line (HCT-116 cell lines) using MTT assay at 100 µM, and the results were outlined as shown in Table 1.
Human osteosarcoma (HOS cell line), human breast adenocarcinoma (MDA-MB-231cell lines), human breast cancer (MCF-7 cell lines), human colorectal adenocarcinoma (Caco2 cell lines), human colon cell line (HCT-116 cell lines), normal human cell lines (BJ-1), and “a telomerase immortalized normal foreskin fibroblast cell line” were obtained from Karolinska Center, Department of Oncology and Pathology, Karolinska Institute and Hospital, Stockholm, Sweden.
Following culturing for 10 days, the cells were seeded at concentration of 10 × 10^3 cells per well in case of MCF-7 & MDA, 20 × 10^3 cells/well in a fresh complete growth medium in case of HCT-116, Caco2, & HOS and 40 × 10^3 cells/well in case of BJ-1 at 37 °C for 24 h in a water jacketed carbon dioxide incubator. After 48 h’ incubation, the medium was aspirated, and then 40 μl MTT salt (2.5 mg/mL) were added for a further 4 h; 200 μl 10% sodium dodecyl sulphate (SDS) in deionized water were added to each well and incubated overnight at 37 °C. The absorbance was measured at 595 nm with reference 690 nm. Doxorubicin was used as positive control, and 0.5% DMSO was used as negative control. IC50 values were calculated, using a probit analysis, and by utilizing the SPSS computer program (SPSS for Windows, statistical analysis software package/version 9/1989 SPSS Inc., Chicago, IL, USA).

[3] = target: CDK-2/cyclin A2 (Homo sapiens, UniProt P24941); test: CDK-2/cyclin A2 inhibitory assay (ELISA); assay type: biochemical; conditions: mean of three values; read-out: IC50 (Mean ± SEM), CDK-2/Cyclin A2
Protocol: Assay of CDK-2/cyclin A2 was achieved through ELISA using an affinity tag labeled capture antibody. […] After the incubation period, the unrestrained substance has been discarded, and the wells have been washed. The added TMB (3,3′,5,5′-tetramethylbenzidine) substrate was prompted by Horseradish peroxidase (HRP), and blue coloration appeared. This reaction was stopped through the addition of stop solution to complete changing in colour from blue to yellow. The created signals were equivalent to the quantity of bound analyte, and the Robonik P2000 ELISA reader was used to record the intensity at a certain wavelength (450 nm).

[4] = test system: caspase-7 in MCF-7 cells; test: Caspase-7 level in MCF-7 cells (ELISA); assay type: cell-based, human; conditions: MCF-7, 24 h, versus 5-fluorouracil or untreated cells
Protocol: as §1
The micro-ELISA plate was provided in this kit pre-coated with a CASP-7-specific antibody. A biotinylated CASP-7 antibody and Avidin–horseradish peroxidase (HRP) conjugate were added. Get rid of the excess components. The substrate solution was added. Wells that contain CASP-7, biotinylated detection antibody, and Avidin-HRP conjugate will appear blue in color. The color turns yellow following the addition of sulfuric acid solution. The optical density (OD) was measured at a wavelength of 450 nm ±2 nm. […]

CCn1c(COc2ccc3c(-c4ccccc4)cc(=O)oc3c2)nnc1SC1OCC(O)C(O)C1O [Compound 10, 4-Phenyl-7-((4-ethyl-5-(1-(β-D-xylopyranosyl)thio)-4H-1,2,4-triazol-3-yl)meth-oxy)-2H-chromen-2-one]
Upregulation of pro-apoptotic Bax protein versus untreated cells [1]: 4 folds
cytotoxicity at 100 µM [2]: 27.2 ± 0.7%
IC50 [3]: 0.15 µM
Level of caspase-7 (in words) [4]: elevated
